This passage reports Ki, Drug uptake and logD results from ChEMBL document CHEMBL1147144, “Novel styrylpyridines as probes for SPECT imaging of amyloid plaques” (J Med Chem, 2007).

Data set [1] addresses Amyloid-beta precursor protein (Homo sapiens, UniProt P05067). As to the kind of experiment: Displacement of […] from Abeta peptide plaques in Alzheimer's disease patient brain.
In data set [2] the test system is Thyroid gland. Description: Biodistribution in ICR mouse thyroid at 5 to 10 uCi, iv after 30 mins. The class given is ADME, organism-based. As to conditions: in vivo, 0.5 h.
Data set [3] deals with Brain. As to the kind of experiment: Biodistribution in ICR mouse brain at 5 to 10 uCi, iv after 1 hr. In kind it is ADME, organism-based. As to conditions: in vivo.
Data set [4] deals with Kidney. Description: Biodistribution in ICR mouse kidney at 5 to 10 uCi, iv after 1 hr. The class given is ADME, organism-based. The following applies: in vivo.
In data set [5] the test system is Liver. Description: Biodistribution in ICR mouse liver at 5 to 10 uCi, iv after 2 hrs. The class given is ADME, organism-based. The following applies: in vivo.
For data set [6], the system named is Muscle tissue. As to the kind of experiment: Biodistribution in ICR mouse muscle at 5 to 10 uCi, iv after 2 mins. The class given is ADME, organism-based. The following applies: in vivo.
The test system of data set [7] is Kidney. As to the kind of experiment: Biodistribution in ICR mouse kidney at 5 to 10 uCi, iv after 2 hrs. In kind it is ADME, organism-based. The following applies: in vivo.
The subject of data set [8] is Kidney. As to the kind of experiment: Biodistribution in ICR mouse kidney at 5 to 10 uCi, iv after 2 mins. In kind it is ADME, organism-based. The following applies: in vivo.
Data set [9] deals with Muscle tissue. As to the kind of experiment: Biodistribution in ICR mouse muscle at 5 to 10 uCi, iv after 2 hrs. The class given is ADME, organism-based. The following applies: in vivo.
For data set [10], the system named is Heart. As to the kind of experiment: Biodistribution in ICR mouse heart at 5 to 10 uCi, iv after 2 mins. In kind it is ADME, organism-based. As to conditions: in vivo.
Data set [11] deals with Spleen. Description: Biodistribution in ICR mouse spleen at 5 to 10 uCi, iv after 1 hr. In kind it is ADME, organism-based. The following applies: in vivo.
The subject of data set [12] is Lung. Description: Biodistribution in ICR mouse lung at 5 to 10 uCi, iv after 1 hr. The class given is ADME, organism-based. As to conditions: in vivo.
Data set [13] concerns Blood. As to the kind of experiment: Biodistribution in ICR mouse blood at 5 to 10 uCi, iv after 2 mins. In kind it is ADME, organism-based. As to conditions: in vivo.
Data set [14] deals with Blood. Description: Biodistribution in ICR mouse blood at 5 to 10 uCi, iv after 30 mins. The class given is ADME, organism-based. The following applies: in vivo, 0.5 h.
For data set [15], the system named is Blood. Description: Biodistribution in ICR mouse blood at 5 to 10 uCi, iv after 1 hr. The following applies: in vivo. In kind it is ADME, organism-based.
The test system of data set [16] is Heart. As to the kind of experiment: Biodistribution in ICR mouse heart at 5 to 10 uCi, iv after 2 hrs. In kind it is ADME, organism-based. As to conditions: in vivo.
Data set [17] concerns Brain. As to the kind of experiment: Biodistribution in ICR mouse brain at 5 to 10 uCi, iv after 2 mins. The class given is ADME, organism-based. The following applies: in vivo.
The subject of data set [18] is Liver. Description: Biodistribution in ICR mouse liver at 5 to 10 uCi, iv after 2 mins. In kind it is ADME, organism-based. As to conditions: in vivo.
Data set [19] relates to Zone of skin. As to the kind of experiment: Biodistribution in ICR mouse skin at 5 to 10 uCi, iv after 30 mins. As to conditions: in vivo, 0.5 h. In kind it is ADME, organism-based.
Data set [20] concerns Heart. Description: Biodistribution in ICR mouse heart at 5 to 10 uCi, iv after 1 hr. In kind it is ADME, organism-based. As to conditions: in vivo.
In data set [21] the test system is Heart. As to the kind of experiment: Biodistribution in ICR mouse heart at 5 to 10 uCi, iv after 30 mins. The following applies: in vivo, 0.5 h. In kind it is ADME, organism-based.
Data set [22] concerns Muscle tissue. Description: Biodistribution in ICR mouse muscle at 5 to 10 uCi, iv after 30 mins. As to conditions: in vivo, 0.5 h. The class given is ADME, organism-based.
Data set [23] concerns Spleen. Description: Biodistribution in ICR mouse spleen at 5 to 10 uCi, iv after 2 hrs. In kind it is ADME, organism-based. As to conditions: in vivo.
Data set [24] relates to Zone of skin. As to the kind of experiment: Biodistribution in ICR mouse skin at 5 to 10 uCi, iv after 2 hrs. In kind it is ADME, organism-based. As to conditions: in vivo.
Data set [25] relates to Lung. As to the kind of experiment: Biodistribution in ICR mouse lung at 5 to 10 uCi, iv after 2 hrs. The class given is ADME, organism-based. As to conditions: in vivo.
Data set [26] relates to Thyroid gland. As to the kind of experiment: Biodistribution in ICR mouse thyroid at 5 to 10 uCi, iv after 2 hrs. The class given is ADME, organism-based. The following applies: in vivo.
The subject of data set [27] is Liver. As to the kind of experiment: Biodistribution in ICR mouse liver at 5 to 10 uCi, iv after 30 mins. The following applies: in vivo, 0.5 h. In kind it is ADME, organism-based.
Data set [28] relates to Brain. As to the kind of experiment: Biodistribution in ICR mouse brain at 5 to 10 uCi, iv after 2 hrs. In kind it is ADME, organism-based. As to conditions: in vivo.
Data set [29] relates to Liver. As to the kind of experiment: Biodistribution in ICR mouse liver at 5 to 10 uCi, iv after 1 hr. The class given is ADME, organism-based. As to conditions: in vivo.
For data set [30], the system named is Blood. Description: Biodistribution in ICR mouse blood at 5 to 10 uCi, iv after 2 hrs. The class given is ADME, organism-based. As to conditions: in vivo.
For data set [31], the system named is Spleen. As to the kind of experiment: Biodistribution in ICR mouse spleen at 5 to 10 uCi, iv after 30 mins. In kind it is ADME, organism-based. The following applies: in vivo, 0.5 h.
In data set [32] the test system is Thyroid gland. As to the kind of experiment: Biodistribution in ICR mouse thyroid at 5 to 10 uCi, iv after 1 hr. In kind it is ADME, organism-based. As to conditions: in vivo.
The subject of data set [33] is Lung. Description: Biodistribution in ICR mouse lung at 5 to 10 uCi, iv after 30 mins. In kind it is ADME, organism-based. As to conditions: in vivo, 0.5 h.
For data set [34], the system named is Brain. Description: Biodistribution in ICR mouse brain at 5 to 10 uCi, iv after 30 mins. The class given is ADME, organism-based. As to conditions: in vivo, 0.5 h.
The test system of data set [35] is Muscle tissue. Description: Biodistribution in ICR mouse muscle at 5 to 10 uCi, iv after 1 hr. The class given is ADME, organism-based. As to conditions: in vivo.
The subject of data set [36] is Spleen. Description: Biodistribution in ICR mouse spleen at 5 to 10 uCi, iv after 2 mins. In kind it is ADME, organism-based. The following applies: in vivo.
For data set [37], the system named is Lung. Description: Biodistribution in ICR mouse lung at 5 to 10 uCi, iv after 2 mins. As to conditions: in vivo. The class given is ADME, organism-based.
A short description of data set [38]: Partition coefficient, log P at pH 7.4. The class given is physicochemical. The following applies: octanol/water.
Data set [39] deals with Kidney. Description: Biodistribution in ICR mouse kidney at 5 to 10 uCi, iv after 30 mins. The class given is ADME, organism-based. As to conditions: in vivo, 0.5 h.
Data set [40] concerns Zone of skin. As to the kind of experiment: Biodistribution in ICR mouse skin at 5 to 10 uCi, iv after 1 hr. The class given is ADME, organism-based. As to conditions: in vivo.
Data set [41] has as its system Zone of skin. As to the kind of experiment: Biodistribution in ICR mouse skin at 5 to 10 uCi, iv after 2 mins. In kind it is ADME, organism-based. As to conditions: in vivo.
For data set [42], the system named is Thyroid gland. Description: Biodistribution in ICR mouse thyroid at 5 to 10 uCi, iv after 2 mins. In kind it is ADME, organism-based. The following applies: in vivo.

Amyloid-beta precursor protein, sequence (P05067 whole entry): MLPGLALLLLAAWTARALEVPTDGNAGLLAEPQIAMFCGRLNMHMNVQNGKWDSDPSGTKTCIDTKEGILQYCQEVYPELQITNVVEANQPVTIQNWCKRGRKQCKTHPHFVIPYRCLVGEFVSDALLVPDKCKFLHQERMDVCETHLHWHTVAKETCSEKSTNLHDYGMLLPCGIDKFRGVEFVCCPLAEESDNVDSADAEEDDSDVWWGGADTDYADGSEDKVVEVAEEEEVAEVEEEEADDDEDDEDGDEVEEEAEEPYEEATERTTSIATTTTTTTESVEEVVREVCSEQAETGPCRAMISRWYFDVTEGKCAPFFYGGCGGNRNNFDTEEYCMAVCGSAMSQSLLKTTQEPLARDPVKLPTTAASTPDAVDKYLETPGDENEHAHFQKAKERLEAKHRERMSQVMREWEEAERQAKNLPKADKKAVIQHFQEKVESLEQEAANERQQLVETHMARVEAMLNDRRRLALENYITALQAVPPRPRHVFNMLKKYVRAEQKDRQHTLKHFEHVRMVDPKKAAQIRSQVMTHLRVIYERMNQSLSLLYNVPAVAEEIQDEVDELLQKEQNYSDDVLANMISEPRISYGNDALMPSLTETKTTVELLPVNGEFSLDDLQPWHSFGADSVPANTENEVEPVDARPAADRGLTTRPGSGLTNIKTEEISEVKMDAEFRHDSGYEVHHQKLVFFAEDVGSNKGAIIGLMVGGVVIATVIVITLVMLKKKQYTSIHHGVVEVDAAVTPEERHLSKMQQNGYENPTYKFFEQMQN

As usually defined, the Ki is the dissociation constant of the complex between target and ligand, obtained from inhibition or displacement. Higher therefore signals lower affinity. Take `CNc1ccc(/C=C/c2cnc(OCCOCCOCCF)c(I)c2)cc1`: the inhibitory constant (Ki) in [1] was 9 nM.

In the case of `CN(C)c1ccc(/C=C/c2cnc(OCCO)c(I)c2)cc1`, in data set [1], affinity was put at a Ki of 7.5 nM.

The term logD denotes lipophilicity at a set pH, counting ionised and neutral species. Low values mean a more hydrophilic compound, high ones a more lipophilic compound. On to `OCCOc1ncc(/C=C/c2ccc(O)cc2)cc1[125I]`, for which the Drug uptake with Thyroid gland [2] is 3.99 % ID/g; with Brain [3] it was 0.09 % ID/g; in the data set on Kidney [4] it was 2.94 % ID/g; in the data set on Liver [5] it was 2.63 % ID/g; in the data set with Muscle tissue [6], 1.01 % ID/g; in the data set with Kidney [7], 2.5 % ID/g. Moreover, the Drug uptake in the data set on Kidney [8] stood at 20.4 % ID/g; in the data set with Muscle tissue [9] it was 0.12 % ID/g; in the data set on Heart [10], 6.66 % ID/g; in the data set on Spleen [11], 0.5 % ID/g; with Lung [12], 1.34 % ID/g; with Blood [13], 10.1 % ID/g. The Drug uptake is 3.92 % ID/g with Blood [14]; 1.29 % ID/g in the data set with Blood [15]; 0.51 % ID/g in the data set with Heart [16]; 0.99 % ID/g with Brain [17]; 18.3 % ID/g in the data set with Liver [18]; 1.36 % ID/g with Zone of skin [19]. The Drug uptake in the data set with Heart [20] is 0.65 % ID/g; in the data set on Heart [21], 1.35 % ID/g; with Muscle tissue [22] it was 0.59 % ID/g; in the data set on Spleen [23], 0.5 % ID/g; with Zone of skin [24], 0.37 % ID/g; in the data set with Lung [25], 1.02 % ID/g. Further, the Drug uptake in the data set on Thyroid gland [26] is reported as 16 % ID/g; in the data set with Liver [27], 5.15 % ID/g; with Brain [28], 0.06 % ID/g; with Liver [29] it was 2.38 % ID/g; with Blood [30], 1.56 % ID/g; in the data set with Spleen [31], 1.28 % ID/g. Besides, the Drug uptake amounted to 13 % ID/g in the data set with Thyroid gland [32]; 3.1 % ID/g with Lung [33]; 0.26 % ID/g with Brain [34]; 0.21 % ID/g in the data set with Muscle tissue [35]; 4.2 % ID/g in the data set with Spleen [36]; 14.2 % ID/g in the data set on Lung [37]. The Drug uptake with Kidney [39] was 10 % ID/g; in the data set on Zone of skin [40], 0.62 % ID/g; in the data set on Zone of skin [41], 0.64 % ID/g; in the data set on Thyroid gland [42], 4.38 % ID/g. The compound also yielded a pH-dependent lipophilicity (logD) in data set [38] of 2.2.
